Test results reported in ChEMBL document CHEMBL5226286, “The application of isatin-based multicomponent-reactions in the quest for new bioactive and druglike molecules” (Eur J Med Chem, 2021).
≈ marks a conversion by molar mass, not a printed value.

Experiments:
[1] = tested on: Mycobacterium tuberculosis variant bovis; assay: Antimycobacterial activity against active stage of Mycobacterium bovis BCG ATCC 35743 assessed as minimum inhibitory concentration by NR assay; assay type: functional
[2] = tested on: Mycobacterium tuberculosis variant bovis; assay: Antimycobacterial activity against dormant stage of Mycobacterium bovis BCG ATCC 35743 assessed as minimum inhibitory concentration by NR assay; assay type: functional

SMILES | MIC [1] | MIC [2]
Cc1ccc(Cn2cc(CN3C(=O)C4(C(C#N)=C(N)Oc5cc(C)oc(=O)c54)c4cc(Cl)ccc43)nn2)cc1 (stereo not drawn) | 5.24 µg/mL (≈ 9.69 µM) | 5.23 µg/mL (≈ 9.67 µM)
Cc1cc2c(c(=O)o1)C1(C(=O)N(Cc3cn(Cc4ccc(Cl)cc4)nn3)c3ccc(Br)cc31)C(C#N)=C(N)O2 (stereo not drawn) | 4.12 µg/mL (≈ 6.8 µM) | 3.97 µg/mL (≈ 6.55 µM)
Cc1ccc(Cn2cc(CN3C(=O)C4(C(C#N)=C(N)Oc5cc(C)oc(=O)c54)c4ccccc43)nn2)cc1 (stereo not drawn) | 7.42 µg/mL (≈ 14.6 µM) | 5.36 µg/mL (≈ 10.6 µM)
Cc1cc2c(c(=O)o1)C1(C(=O)N(Cc3cn(Cc4ccc(Cl)cc4)nn3)c3ccccc31)C(C#N)=C(N)O2 (stereo not drawn) | 2.97 µg/mL (≈ 5.64 µM) | 4.35 µg/mL (≈ 8.26 µM)
Cc1cc2c(c(=O)o1)C1(C(=O)N(Cc3cn(Cc4ccc(Cl)cc4)nn3)c3ccc(Cl)cc31)C(C#N)=C(N)O2 (stereo not drawn) | 3.04 µg/mL (≈ 5.42 µM) | 7.73 µg/mL (≈ 13.8 µM)
CC1(C)CC(=O)C2=C(C1)OC(N)=C(C#N)C21C(=O)N(Cc2cn(Cc3ccc(Cl)cc3)nn2)c2ccc(Cl)cc21 (stereo not drawn) | 2.87 µg/mL (≈ 4.99 µM) | 3.09 µg/mL (≈ 5.37 µM)
Cc1ccc(Cn2cc(CN3C(=O)C4(C(C#N)=C(N)OC5=C4C(=O)CC(C)(C)C5)c4cc(Br)ccc43)nn2)cc1 (stereo not drawn) | 2.87 µg/mL (≈ 4.79 µM) | 6.23 µg/mL (≈ 10.4 µM)
CC1(C)CC(=O)C2=C(C1)OC(N)=C(C#N)C21C(=O)N(Cc2cn(Cc3ccc(Cl)cc3)nn2)c2ccc(Br)cc21 (stereo not drawn) | 4.32 µg/mL (≈ 6.97 µM) | 3.16 µg/mL (≈ 5.1 µM)
CO[C@H]1/C=C/O[C@@]2(C)Oc3c(C)c(O)c4c(O)c(c(/C=N/N5CCN(C)CC5)c(O)c4c3C2=O)NC(=O)/C(C)=C\C=C\[C@H](C)[C@H](O)[C@@H](C)[C@@H](O)[C@@H](C)[C@H](OC(C)=O)[C@@H]1C [RIFAMPIN] | 0.45 µg/mL (≈ 0.547 µM) | 0.81 µg/mL (≈ 0.984 µM)
